One test deals with D(3) dopamine receptor (Homo sapiens, UniProt P35462). Put plainly: Displacement of [3H]-N-methylspiperone from recombinant human D3R expressed in HEK cell membranes after 90 mins by scintillation counting method.
For test [1], the target named is Sodium-dependent dopamine transporter (Homo sapiens, UniProt Q01959). Put plainly: Displacement of [3H]-WIN35428 from recombinant human DAT expressed in HEK cell membranes after 90 mins by scintillation counting method. On the technique in general: Loss of bound radioactivity is the signal in a displacement assay; it reports binding, not function.
Sodium-dependent dopamine transporter, sequence (Q01959 whole entry): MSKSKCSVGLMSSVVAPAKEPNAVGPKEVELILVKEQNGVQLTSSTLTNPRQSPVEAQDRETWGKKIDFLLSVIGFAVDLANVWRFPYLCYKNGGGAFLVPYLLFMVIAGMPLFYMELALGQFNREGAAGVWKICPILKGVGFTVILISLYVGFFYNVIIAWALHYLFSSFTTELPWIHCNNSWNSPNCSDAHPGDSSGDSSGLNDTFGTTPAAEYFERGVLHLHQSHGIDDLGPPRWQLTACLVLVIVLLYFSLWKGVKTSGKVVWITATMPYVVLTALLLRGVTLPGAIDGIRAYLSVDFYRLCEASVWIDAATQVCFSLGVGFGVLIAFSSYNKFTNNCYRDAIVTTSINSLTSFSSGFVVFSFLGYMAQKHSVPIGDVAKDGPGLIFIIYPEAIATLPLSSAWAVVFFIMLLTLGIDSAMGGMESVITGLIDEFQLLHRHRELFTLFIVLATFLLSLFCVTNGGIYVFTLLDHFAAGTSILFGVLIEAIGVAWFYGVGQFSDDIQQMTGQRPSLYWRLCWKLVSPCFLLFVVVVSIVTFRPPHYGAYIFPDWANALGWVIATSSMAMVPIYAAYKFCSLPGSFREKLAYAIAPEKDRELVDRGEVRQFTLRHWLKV

By pKi is commonly meant the negative decadic logarithm of the Ki, by convention in mol/L.

pKi: −log10 of the molar value.

D(3) dopamine receptor, sequence (P35462 as listed by the source): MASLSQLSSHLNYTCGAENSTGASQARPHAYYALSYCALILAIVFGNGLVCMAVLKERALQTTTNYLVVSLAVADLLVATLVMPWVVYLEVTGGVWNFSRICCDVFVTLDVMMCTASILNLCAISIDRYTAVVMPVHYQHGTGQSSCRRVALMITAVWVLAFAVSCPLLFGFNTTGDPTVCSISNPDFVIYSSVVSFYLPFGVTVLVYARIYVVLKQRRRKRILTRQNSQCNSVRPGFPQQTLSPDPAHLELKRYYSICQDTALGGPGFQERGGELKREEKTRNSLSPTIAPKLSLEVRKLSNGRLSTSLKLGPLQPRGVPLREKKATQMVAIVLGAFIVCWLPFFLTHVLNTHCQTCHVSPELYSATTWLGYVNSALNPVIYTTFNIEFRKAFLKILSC

With `CCCCCCCCCCC[C@@H]1CCN[C@H](C(=O)NCC(O)CO)C1` (some centres not stated), the results for the pKi (at D(3) dopamine receptor; in test [1]) were 5.33 and 5.74, respectively.

For the origin of these results see BindingDB's records for doi:10.1021/acs.jmedchem.8b00401 (2019).
